Experimental data published in patent EP0314302A2, “Herbicidal o-carbomethoxy-sulfonylureas” (E.I. DU PONT DE NEMOURS AND COMPANY, priority 1987, dated 1989).

Tests used:
Sowthistle = assay: Test 7 postemergence; format: in vivo, Sonchus spp; conditions: scale 0-100
Description: Individual 11.4-cm plastic pots filled with planting medium were seeded with rape, wild radish (Raphanus raphanistruna). tansy mustard (Descurainia pinnata), ball mustard (Neslia paniculata), black mustard (Brassica nigra), yellow mustard, brown mustard, lentils, safflower, flax, sunflower, peanut, vetch, alfalfa, field bean, pea, violet (Viola spp), Kochia (Kochia spp), Russian thistle (Salsola spp), Matricaria spp, groundsel (Senecio spp), shepherdspurse (Capsella bursa-pastoris), nightshade (Solanum spp), sowthistle (Sonchus spp), sugar beet, wheat, "Bonanza" barley and "Morex" barley, Kentucky bluegrass (Poa pratensis), red clover (Trifolium pratense), dandelion (Taraxacum spp) and buckhorn plantain (Plantago lanceolata).
Plants were treated postemergence with the compound formulated with a non-phytotoxic carrier. Plants were visually rated 18 days after treatment (DAT). Response ratings were based on the scale of 0 to 100 where 0 = no effect, 20 = minimal injury and 100 = complete control.

Bindweed = assay: Test 11 citrus pots, postemergence to the weeds; format: in vivo, Convolvulus spp.; conditions: Postemergence 32 g/ha, 0.25% X-77 surfactant, scale 0-100
Description: (§1) Budded citrus seedlings were planted in 30-liter plastic pots which were also seeded with sandbur, guineagrass, narrowleaf panicum, common ragweed, yellow nutsedge, purple nutsedge and bindweed. Compound I was applied preemergence and postemergence to the weeds. Treatments were sprayed to simulate the trunk-to-trunk herbicide application method used in some citrus groves. The compound was also applied postemergence to weeds grown in windowsill flats. The flats were filled with planting medium and seeded with morningglory (Ipomoea spp.). purple nutsedge (Cyperus rotundus), pigweed (Amaranthus spp.), bindweed (Convolvulus spp.), narrowleaf panicum (Panicum maximum), common ragweed (Ambrosia artemisiifolia), sandbur (Cenchrus echinatus), itchgrass (Rottboellia exaltata), johnsongrass (Sorghum halepense), guineagrass (Panicum maximum), smooth crabgrass (Digitaria ischaemum), broadleaf signalgrass (Brachiaria platyphylla), bermudagrass (Cynodon dactylon), goosegrass (Eleusine indica), large crabgrass (Digitaria sanguinalis) and yellow nutsedge (Cyperus esculentus).
(§2) The compound was formulated and sprayed with 0.25% X-77 surfactant in water. Plants were visually rated 21 and 29 days after treatment and compared with appropriate controls. Injury ratings were based on the scale of 0 to 100, where 0 indicates no effect, 20 indicates minimum effect and 100 indicates complete control. […]

Triticum aestivum = assay: Test 1 greenhouse, postemergence; format: in vivo; conditions: 21 days, scale 0-100
Description: (§3) Seeds of Bromus tectorum, Kochia scoparia, Salsoa kali, Avena fatua, Convolvulus arvensis, Secale cereale, Setaria viridis and Triticum aestivum were placed in 26-cm plastic pans containing a pasteurized sandy loam soil (pH 6.5, 1% organic matter). Plantings were maintained in the greenhouse for 18-28 days at which time the postemergence treatments were applied using a nonphytotoxic solvent as the carrier for the herbicide. The preemergence segment of the test was seeded immediately before herbicide application using Bromus tectorum, Kochia scoparia, Polygonum convolvulus, Salsoa kali, Avena fatua, Convolvulus arvensis, Secale cereale, Setaria viridis, Aegilops cylindrica, Amaranthus retroflexus, Chenopodium album, Hordeum vulgare, Triticum aestivum, Sorghum bicolor, and Zea mays. All treatments were maintained in the greenhouse for an additional 21 days at which time visual assessment of weed control was determined using a scale of 0 to 100 for each species where 0 represented no control and 100 represented complete control.

Setaria viridis = assay: Test 1 greenhouse, postemergence; format: in vivo; conditions: 21 days, scale 0-100
Description: as §3

Large Crabgrass = assay: Test 11 windowsill flats, postemergence; format: in vivo, Digitaria sanguinalis; conditions: Postemergence 32 g/ha, 0.25% X-77 surfactant, scale 0-100
Description: as §1, §2

Guinea Grass = assay: Test 5 sugarcane injury and weed control, postemergence; format: in vivo, P. maximum; conditions: scale 0-100
Description: Sugarcane (Saccharum spp.) cuttings which had been pre-sprouted were planted in 15-cm plastic pots. Narrowleaf panicum (Panicum maximum), large crabgrass (Digitaria sanguinalis), guineagrass (P. maximum) and itchgrass (Rottboellia exaltata) were seeded in individual 15-cm plastic pots.
The pots were treated postemergence when the plants had 3 to 4 leaves with 2 to 3 tillers with Compound I formulated in a non-phytotoxic carrier made up of acetone-humectant-water-surfactant (22:1:1:0.05 v/v). The degree of crop injury and weed control was visually rated 27 days after treatment (DAT). Plant injury ratings are based on the scale of 0 to 100 where 0 = no effect, 20 = minimal injury and 100 = complete control.

Zea mays = assay: Test 1 greenhouse, preemergence; format: in vivo; conditions: 21 days, scale 0-100
Description: as §3

Secale cereale = assay: Test 1 greenhouse, preemergence; format: in vivo; conditions: 21 days, scale 0-100
Description: as §3

Hordeum vulgare = assay: Test 1 greenhouse, preemergence; format: in vivo; conditions: 21 days, scale 0-100
Description: as §3

Chenopodium album = assay: Test 1 greenhouse, preemergence; format: in vivo; conditions: 21 days, scale 0-100
Description: as §3

Amaranthus retroflexus = assay: Test 1 greenhouse, preemergence; format: in vivo; conditions: 21 days, scale 0-100
Description: as §3

Trumpetcreeper = assay: Test 12 over-the-top application, postemergence; format: in vivo, Campsis radicans; conditions: 26 days after treatment, scale 0-100
Description: The object of this test was to evaluate the safety of sour lemon to the over-the-top application of Compound I and control of lantana (Lantana camara) and trumpetcreeper (Campsis radicans). Plants were sprayed postemergence with Compound I formulated in a non-phytotoxic solvent. Treated plants were visually rated 26 days after treatment and compared with appropriate controls. Injury ratings were based on the scale of 0 to 100, where 0 indicates no effect, 20 indicates minimal effect and 100 indicates complete control.

Itchgrass = assay: Test 11 windowsill flats, postemergence; format: in vivo, Rottboellia exaltata; conditions: Postemergence 32 g/ha, 0.25% X-77 surfactant, scale 0-100
Description: as §1, §2

COC(=O)c1cccnc1S(=O)(=O)NC(=O)Nc1nc(OC)cc(OC)n1 [Compound I, 2-[[(4,6-dimethoxypyrimidin-2-yl)aminocarbonyl]aminosulfonyl]-3-pyridinecarboxylic acid, methyl ester]
20: visual assessment of weed control (Secale cereale; 4 g/ha) | Injury ratings (Trumpetcreeper; 16 g/ha)
0: Injury ratings (Trumpetcreeper; 8 g/ha)
30: Plant Injury Rating 27 DAT (Guinea Grass; 8 g/ha) | visual assessment of weed control (Secale cereale; 8 g/ha)
40: visual assessment of weed control (Zea mays; 4 g/ha) | visual assessment of weed control (Secale cereale; 16 g/ha) | Injury ratings (Trumpetcreeper; 32 g/ha)
60: visual assessment of weed control (Hordeum vulgare; 8 g/ha) | visual assessment of weed control (Chenopodium album; 4 g/ha)
70: Plant Injury Rating 27 DAT (Guinea Grass; 16 g/ha) | visual assessment of weed control (Secale cereale; 32 g/ha) | visual assessment of weed control (Hordeum vulgare; 16 g/ha) | visual assessment of weed control (Amaranthus retroflexus; 4 g/ha)
100: Plant Injury Rating 18 DAT (Sowthistle; 16 g/ha) | Plant Injury Rating 18 DAT (Sowthistle; 32 g/ha) | Injury ratings (Bindweed) | visual assessment of weed control (Triticum aestivum; 8 g/ha) | visual assessment of weed control (Triticum aestivum; 16 g/ha) | visual assessment of weed control (Triticum aestivum; 32 g/ha) | visual assessment of weed control (Triticum aestivum; 64 g/ha) | visual assessment of weed control (Triticum aestivum; 125 g/ha) | visual assessment of weed control (Setaria viridis; 16 g/ha) | visual assessment of weed control (Setaria viridis; 32 g/ha) | visual assessment of weed control (Setaria viridis; 64 g/ha) | visual assessment of weed control (Setaria viridis; 125 g/ha) | Plant Injury Rating 27 DAT (Guinea Grass; 64 g/ha) | visual assessment of weed control (Zea mays; 125 g/ha) | visual assessment of weed control (Chenopodium album; 32 g/ha) | visual assessment of weed control (Chenopodium album; 64 g/ha) | visual assessment of weed control (Chenopodium album; 125 g/ha) | visual assessment of weed control (Amaranthus retroflexus; 32 g/ha) | visual assessment of weed control (Amaranthus retroflexus; 64 g/ha) | visual assessment of weed control (Amaranthus retroflexus; 125 g/ha) | Injury ratings (Itchgrass)
90: visual assessment of weed control (Triticum aestivum; 4 g/ha) | visual assessment of weed control (Setaria viridis; 4 g/ha) | visual assessment of weed control (Setaria viridis; 8 g/ha) | visual assessment of weed control (Zea mays; 16 g/ha) | visual assessment of weed control (Zea mays; 32 g/ha) | visual assessment of weed control (Zea mays; 64 g/ha) | visual assessment of weed control (Secale cereale; 125 g/ha) | visual assessment of weed control (Hordeum vulgare; 125 g/ha) | visual assessment of weed control (Chenopodium album; 8 g/ha) | visual assessment of weed control (Chenopodium album; 16 g/ha) | visual assessment of weed control (Amaranthus retroflexus; 8 g/ha) | visual assessment of weed control (Amaranthus retroflexus; 16 g/ha)
50: visual assessment of weed control (Zea mays; 8 g/ha) | visual assessment of weed control (Hordeum vulgare; 4 g/ha)
80: Injury ratings (Large Crabgrass) | Plant Injury Rating 27 DAT (Guinea Grass; 32 g/ha) | visual assessment of weed control (Secale cereale; 64 g/ha) | visual assessment of weed control (Hordeum vulgare; 32 g/ha) | visual assessment of weed control (Hordeum vulgare; 64 g/ha)
